How the values were obtained:
[1] = target: T1, Recombinant human His-tagged Kat6a protein (amino acids 194-810) (Homo sapiens, UniProt Q92794); experiment: Kat6a activity assay (TR-FRET, acetylation of Histone-H4-derived peptide); format: biochemical; conditions: 60 mins at 22° C., 220 nM H4 peptide, 600 nM Acetyl Coenzyme A, read-out: KAT6A - DPF/HAT domain IC50 [mol/l] (arithmetic mean)
T1 construct: Kat6a protein (amino acids 194-810); His

[2] = target: T2, Recombinant human GST-tagged Kat6b protein (431-end) (Homo sapiens, UniProt Q8WYB5); experiment: Kat6b activity assay (TR-FRET, acetylation of Histone-H4-derived peptide); format: biochemical; conditions: 30 mins at 22° C., 500 nM H4 peptide, 600 nM Acetyl Coenzyme A, read-out: KAT6B activity assay IC50 [mol/l] (arithmetic mean)
T2 construct: Kat6b protein (431-end, N-terminal GST-tag); GST (N)
Experimental: Kat6b inhibitory activities of the compounds described in the present invention were quantified using a Fluorescence Resonance Energy Transfer (TR-FRET) assay which measures acetylation of a synthetic, biotinylated Histone-H4-derived peptide by the enzyme.
In this case 50 nl DMSO were used instead of compounds. […] IC50 values were determined by regression analysis based on a 4 parameter equation (minimum, maximum, ICM, Hill; Y=Max+(Min−Max)/(1+(X/ICso) Hill) using the Screener Software (Genedata).

[3] = test system: LCLC97TM1; experiment: LCLC97TM1 proliferation assay; format: cell-based; conditions: Homo sapiens, LCLC-97TM1, LCLC97TM1; read-out: LCLC97TM1 proliferation assay; EC50 [M] (arithmetic mean)
[4] = test system: ZR-75-1 cells; experiment: ZR-75-1 proliferation assay; format: cell-based; conditions: Homo sapiens, ZR-75-1, 144 h, Alamar Blue, read-out: ZR75-1 proliferation assay, EC50 [M] (arithmetic mean)
How it was run: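 ZR-75-1 cells (focal KAT6A amplification), 3000 per well in RPMI 1640 with 2.5% FBS, were exposed to compound in triplicate for 144 h at 37 °C, 5% CO2. Viability read by Alamar Blue fluorescence at 590 nm after 2 h.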

[5] = test system: MDA-MB-436 cells; experiment: MDA-MB-436 proliferation assay (negative control cell line); format: cell-based; conditions: Homo sapiens, 144 h, Alamar Blue, read-out: MDA-MB-436 proliferation assay, EC50 [M] (arithmetic mean)
How it was run: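 MDA-MB-436 cells (KAT6A deletion, low KAT6A protein) seeded at 3000 cells/well in DMEM/Ham's F12 with 2.5% FBS, treated in triplicate for 144 h at 37° C, 5% CO2. Viability read by Alamar Blue fluorescence at 590 nm after 2 h.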

[6] = test system: ESR1 transcription in MVLN cells; experiment: MVLN reporter assay: repression of ESR1 transcription (luciferase signal); format: cell-based; conditions: Homo sapiens, MVLN, 24 h, luciferase signal after 24 h, read-out: MVLN reporter assay, IC50 [M] (arithmetic mean)
How it was run: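 To control for cell loss, Alamar Blue (2 h, 530/590 nm) precedes the 24 h luciferase measurement. The reporter is an ERE from the Xenopus vitellogenin A2 gene driving luciferase, stably transfected into ER-expressing MVLN cells; duplicate samples.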

T2 sequence (Q8WYB5 431-2073): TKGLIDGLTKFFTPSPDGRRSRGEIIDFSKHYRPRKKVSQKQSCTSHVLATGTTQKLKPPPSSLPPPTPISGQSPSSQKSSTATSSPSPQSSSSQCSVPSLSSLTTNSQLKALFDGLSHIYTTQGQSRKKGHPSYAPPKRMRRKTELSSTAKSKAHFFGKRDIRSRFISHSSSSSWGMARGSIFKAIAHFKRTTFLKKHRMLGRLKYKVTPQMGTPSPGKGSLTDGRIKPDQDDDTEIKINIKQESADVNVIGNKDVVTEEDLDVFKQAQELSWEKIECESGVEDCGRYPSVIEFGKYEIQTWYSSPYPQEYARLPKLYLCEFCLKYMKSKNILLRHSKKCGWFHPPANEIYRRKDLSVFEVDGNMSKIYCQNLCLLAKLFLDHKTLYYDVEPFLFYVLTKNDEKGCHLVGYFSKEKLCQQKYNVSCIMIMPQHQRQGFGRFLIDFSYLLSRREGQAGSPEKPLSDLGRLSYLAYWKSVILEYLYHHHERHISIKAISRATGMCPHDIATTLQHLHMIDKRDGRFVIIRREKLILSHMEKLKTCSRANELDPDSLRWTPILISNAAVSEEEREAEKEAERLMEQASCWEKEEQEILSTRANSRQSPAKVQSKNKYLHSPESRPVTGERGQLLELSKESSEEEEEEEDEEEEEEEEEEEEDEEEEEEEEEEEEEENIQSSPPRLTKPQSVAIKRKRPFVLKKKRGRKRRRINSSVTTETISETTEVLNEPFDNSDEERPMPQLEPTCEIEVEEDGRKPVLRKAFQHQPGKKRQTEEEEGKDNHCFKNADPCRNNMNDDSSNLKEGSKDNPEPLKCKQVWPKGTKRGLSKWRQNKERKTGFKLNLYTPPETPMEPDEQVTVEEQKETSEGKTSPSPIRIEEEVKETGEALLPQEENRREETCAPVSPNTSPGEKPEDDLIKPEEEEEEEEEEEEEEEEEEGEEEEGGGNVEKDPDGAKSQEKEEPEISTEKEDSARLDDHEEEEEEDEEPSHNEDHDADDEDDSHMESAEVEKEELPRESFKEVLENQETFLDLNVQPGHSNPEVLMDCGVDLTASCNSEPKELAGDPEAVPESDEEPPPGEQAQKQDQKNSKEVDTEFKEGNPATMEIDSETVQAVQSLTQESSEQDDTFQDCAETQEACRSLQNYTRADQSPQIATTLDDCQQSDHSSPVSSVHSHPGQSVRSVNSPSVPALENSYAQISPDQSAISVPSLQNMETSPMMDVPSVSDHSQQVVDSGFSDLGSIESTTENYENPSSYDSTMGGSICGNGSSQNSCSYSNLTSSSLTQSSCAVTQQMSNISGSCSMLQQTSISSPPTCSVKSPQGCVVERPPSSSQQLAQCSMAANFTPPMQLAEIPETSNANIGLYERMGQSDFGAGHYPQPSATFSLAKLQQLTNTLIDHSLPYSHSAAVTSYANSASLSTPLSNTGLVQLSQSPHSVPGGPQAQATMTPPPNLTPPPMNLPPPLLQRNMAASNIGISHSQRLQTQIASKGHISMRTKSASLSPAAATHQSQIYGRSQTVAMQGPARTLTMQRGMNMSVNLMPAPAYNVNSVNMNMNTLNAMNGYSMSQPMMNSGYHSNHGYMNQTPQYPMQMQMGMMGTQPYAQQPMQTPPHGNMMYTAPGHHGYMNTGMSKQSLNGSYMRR
T1 sequence (Q92794 194-810): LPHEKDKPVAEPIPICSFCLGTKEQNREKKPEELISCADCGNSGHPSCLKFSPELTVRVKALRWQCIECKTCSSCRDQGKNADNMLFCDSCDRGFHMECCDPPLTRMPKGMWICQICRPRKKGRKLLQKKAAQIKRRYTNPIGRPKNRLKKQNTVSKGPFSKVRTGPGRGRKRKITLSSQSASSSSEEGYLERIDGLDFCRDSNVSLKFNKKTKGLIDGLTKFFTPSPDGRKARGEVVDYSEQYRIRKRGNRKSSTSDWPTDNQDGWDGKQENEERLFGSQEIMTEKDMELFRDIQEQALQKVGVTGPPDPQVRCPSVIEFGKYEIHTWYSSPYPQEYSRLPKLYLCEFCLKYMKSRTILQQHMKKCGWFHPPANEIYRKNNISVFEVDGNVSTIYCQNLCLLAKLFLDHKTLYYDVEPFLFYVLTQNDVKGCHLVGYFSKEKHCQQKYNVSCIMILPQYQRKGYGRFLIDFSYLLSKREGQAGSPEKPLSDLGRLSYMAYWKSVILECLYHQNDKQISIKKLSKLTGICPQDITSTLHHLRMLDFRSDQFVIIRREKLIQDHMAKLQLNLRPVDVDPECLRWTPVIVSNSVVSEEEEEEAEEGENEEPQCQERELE

CC(C)(C)c1ccc(OC2CCC2)c(S(=O)(=O)NC(=O)c2cc3c(F)cc(N4CCC4)cc3o2)c1 [Example 228, 6-(Azetidin-1-yl)-N-[(5-(tert-butyl)-2-cyclobutoxyphenyl)sulfonyl]-4-fluorobenzofuran-2-carboxamide]
IC50 [1]: 2.57 nM | IC50 [2]: 13.4 nM | EC50 [3]: 1.67e-07 M | EC50 [4]: 1.16e-07 M | EC50 [5]: > 2e-05 M | IC50 [6]: 2.39e-08 M

CC(C)Oc1ccc(C(C)(C)C)cc1S(=O)(=O)NC(=O)c1cc2c(F)cc(N3CCC3)cc2o1 [Example 229, 6-(Azetidin-1-yl)-N-[(5-(tert-butyl)-2-isopropoxyphenyl)sulfonyl]-4-fluorobenzofuran-2-carboxamide]
IC50 [1]: 4.79 nM | IC50 [2]: 27.6 nM | EC50 [3]: 1.8e-07 M | EC50 [4]: 2.18e-07 M | EC50 [5]: > 2e-05 M | IC50 [6]: 3.83e-08 M

From patent US20240279207A1, “SUBSTITUTED ACYL SULFONAMIDES FOR TREATING CANCER” (The Broad Institute, Inc., priority 2020, published 2024)
